This note sets out measurements from US20040110821A1, “GAL3 receptor antagonists for the treatment of affective disorders” (priority 2002, published 2004).

In assay [1] the target is T1, human GAL1 receptor (Homo sapiens, UniProt P47211).
T1 construct: expressed in transfected cells
T1 sequence (P47211 1-349): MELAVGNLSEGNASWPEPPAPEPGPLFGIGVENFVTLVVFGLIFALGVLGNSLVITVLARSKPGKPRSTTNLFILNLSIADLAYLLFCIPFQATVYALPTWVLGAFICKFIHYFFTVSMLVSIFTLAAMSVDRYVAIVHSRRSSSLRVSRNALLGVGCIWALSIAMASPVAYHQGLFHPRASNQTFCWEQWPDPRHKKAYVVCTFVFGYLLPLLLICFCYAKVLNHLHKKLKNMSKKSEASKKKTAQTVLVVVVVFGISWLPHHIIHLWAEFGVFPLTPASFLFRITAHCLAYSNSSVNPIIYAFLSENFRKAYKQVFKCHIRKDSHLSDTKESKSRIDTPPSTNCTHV
Briefly: Radioligand binding at cloned human GAL1 receptor. The following applies: pyrimidines, Tables 1-3, read-out: Ki (nM) GalR1. The protocol: (§1) The present invention provides for a method of determining the binding affinity of a GAL3 antagonist, wherein the GAL3 antagonist is dissolved in a “suitable solvent”. A “suitable solvent” means one which permits the measurement of binding affinity of the GAL3 antagonist to the human GAL3 receptor at concentrations less than 1 μM, preferably less than 100 nM. Examples of solvents include, but are not limited to, DMSO, ethanol, N,N-dimethylacetamide, or water. For indolones, the preferred solvent is 3% DMSO (final concentration in the assay). For pyrimidines, the preferred solvent is 1% ethanol/0.09% polypuronic acid F-127 (final concentration in the assay). For any other type of compounds, the preferred solvent is the solvent which permits the measurement of binding affinity of a GAL3 antagonist at the lowest concentration. Once a suitable solvent is ascertained for the binding assay of the human GAL3 receptor, the same solvent is used in assays to determine the binding affinity for instance, at the GAL1 receptor.
(§2) The binding properties of the pyrimidines of the present invention were evaluated at the cloned human galanin receptors, GAL1, GAL2, and GAL3, using protocols described herein.
(§3) The binding properties of the indolones of the present invention were evaluated at the cloned human galanin receptors, GAL1, GAL2, and GAL3, using protocols described herein.
(§4) LM(tk-) cells were stably transfected with the human GAL1 or GAL3 receptor. CHO cells were stably transfected with the human GAL2 receptor.
(§5) cDNAs for the human and rat GAL1, and human and rat GAL3 receptors were transfected with a G-418 resistant gene into the mouse fibroblast LM(tk-) cell line by a calcium phosphate transfection method (Cullen, 1967). Stably transfected cells were selected with G-418. Human and rat GAL2 receptors were similarly transfected into CHO cells.
(§6) Membranes were harvested from stably transfected LM(tk-) cells. Adherent cells were washed twice in ice-cold phosphate buffered saline (138 mM NaCl, 8.1 mM Na2HPO4, 2.5 mM KCl, 1.2 mM KH2PO4, 0.9 mM CaCl2, 0.5 mM MgCl2, pH 7.4) and lysed by sonication in ice-cold sonication buffer (20 mM Tris-HCl, 5 mM EDTA, pH 7.7). Large particles and debris were cleared by low speed centrifugation (200×g, 5 min, 4° C.). Membranes were collected from the supernatant fraction by centrifugation (32,000×g, 18 min, 4° C.), washed with ice-cold hypotonic buffer, and collected again by centrifugation (32,000×g, 18 min, 4° C.). The final membrane pellet was resuspended by sonication into a small volume of ice-cold binding buffer (−1 ml for every 5 plates: 10 mM NaCl, 20 mM HEPES, 0.22 mM KH2PO4, 1.26 mM CaCl2, 0.81 mM MgSO4, pH 7.4). Protein concentration was measured by the Bradford method (Bradford, 1976) using Bio-Rad Reagent, with bovine serum albumin as a standard. Membranes were held on ice for up to one hour and used fresh, or flash frozen and stored in liquid nitrogen. Membranes were prepared similarly from CHO cells.
(§7) Galanin Receptors: Binding assays were performed according to the following published methods: human GAL3 (PCT International Publication No. WO 98/15570), human GAL1 (PCT International Publication No. WO 95/2260) human GAL2 (PCT International Publication No. WO 97/26853).
(§8) Binding data were analyzed using nonlinear regression and statistical techniques available in the GraphPAD Prism package (San Diego, Calif.). Enzymatic assay data were derived from a standard curve of reference compound data.

In assay [2] the target is T2, human GAL2 receptor (Homo sapiens, UniProt O43603).
T2 construct: expressed in transfected cells
T2 sequence (O43603 1-387): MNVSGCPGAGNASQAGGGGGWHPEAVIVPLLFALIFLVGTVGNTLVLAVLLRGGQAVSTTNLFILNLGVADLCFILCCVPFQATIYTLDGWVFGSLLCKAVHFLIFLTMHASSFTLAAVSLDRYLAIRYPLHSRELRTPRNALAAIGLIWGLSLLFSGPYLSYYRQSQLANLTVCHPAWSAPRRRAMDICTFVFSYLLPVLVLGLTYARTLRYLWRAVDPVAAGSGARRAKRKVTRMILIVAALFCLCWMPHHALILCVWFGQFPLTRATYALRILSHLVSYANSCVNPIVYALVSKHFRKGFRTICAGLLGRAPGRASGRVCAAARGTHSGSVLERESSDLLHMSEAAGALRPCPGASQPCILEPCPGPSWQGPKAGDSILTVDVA
The assay can be described thus: Radioligand binding at cloned human GAL2 receptor. The following applies: pyrimidines, Tables 1-3, read-out: Ki (nM) GalR2. As to the method: as §1, §2, §3, §4, §5, §6, §7, §8

For the compound `Cc1ccc(Nc2cc(N3CCCCC3)nc(Nc3ccccc3)n2)cc1` [Example 3], the Ki in assay [1] and in assay [2] was greater than 5000 nM in each case.
With `Cc1ccc(Nc2cc(N3CCCCC3)nc(Nc3ccc(C)cc3)n2)cc1` [Example 4], the Ki in assay [1] and in assay [2] was greater than 5000 nM each time.
Take `Cc1ccc(Nc2cc(N3CCCCC3)nc(N(C)c3ccccc3)n2)cc1` [Example 6]: the Ki (commonly the dissociation constant of the complex between target and ligand, obtained from inhibition or displacement) in assay [1] was greater than 5000 nM.
Same read-out and setting: with `Cc1ccc(Nc2cc(N3CCCCC3)nc(NCCc3c[nH]c4ccc(C)cc34)n2)cc1` [Example 8] the figure was greater than 5000 nM.
`COc1ccc2[nH]cc(CCNc3nc(Nc4ccc(C)cc4)cc(N4CCCCC4)n3)c2c1` [Example 9]: the Ki in assay [1] is greater than 5000 nM.
Still for that read-out and setting: with `Cc1ccc(Nc2cc(N3CCCCC3)nc(NCCc3c[nH]c4ccccc34)n2)cc1` [Example 10] the figure was greater than 5000 nM; with `Cc1ccc(Nc2cc(N3CCCCC3)nc(N(C)CCc3c[nH]c4ccccc34)n2)cc1` [Example 11], greater than 5000 nM; with `CN(CCc1c[nH]c2ccccc12)c1nc(Nc2cccc(F)c2)cc(N2CCCCC2)n1` [Example 14], greater than 5000 nM.
As to `Cc1ccc(Nc2cc(N3CCCCC3)nc(N(C)CCc3c[nH]c4ccccc34)n2)cc1Cl` [Example 16], the Ki in assay [1] and in assay [2] was greater than 5000 nM throughout.
`COc1cccc(Nc2cc(N3CCCCC3)nc(N(C)CCc3c[nH]c4ccccc34)n2)c1` [Example 17]: the Ki in assay [1] is greater than 5000 nM.
Still for that read-out and setting: with `COCCN(CCc1c[nH]c2ccccc12)c1nc(Nc2ccc(C)cc2)cc(N2CCCCC2)n1` [Example 19] the figure was greater than 5000 nM.
For `Cc1ccc(Nc2cc(N3CCCCC3)nc(N3CCN(Cc4ccccc4)CC3)n2)cc1` [Example 23], the Ki in assay [1] and in assay [2] was greater than 5000 nM in each case.
On to `Cc1ccc(Nc2cc(N3CCCCC3)nc(N3CCC(c4ccccc4)CC3)n2)cc1` [Example 24], for which the Ki in assay [1] was greater than 5000 nM.
On to `CCc1ccccc1N1CCN(c2nc(Nc3ccc(C)cc3)cc(N3CCCCC3)n2)CC1` [Example 26], for which the Ki in assay [1] was greater than 5000 nM.
For the compound `Cc1ccc(Nc2cc(N3CCCCC3)nc(N3CCN(c4ccccn4)CC3)n2)cc1` [Example 30], the inhibition constant (Ki) in assay [1] was greater than 5000 nM.
As for `Cc1ccc(Nc2cc(N3CCCCC3)nc(N3CCN(c4ncccc4C)CC3)n2)cc1` [Example 31], the Ki in assay [1] was greater than 5000 nM.
As for `Cc1ccc(Nc2cc(N3CCCCC3)nc(N3CCN(c4cc(C(F)(F)F)ccn4)CC3)n2)cc1` [Example 32], the Ki in assay [1] was greater than 5000 nM.
For `Cc1ccc(Nc2cc(N3CCCCC3)nc(N3CCN(c4cccc(C(F)(F)F)n4)CC3)n2)cc1` [Example 33], the inhibition constant Ki in assay [1] and in assay [2] was greater than 5000 nM each time.
In the case of `Cc1ccc(Nc2cc(N3CCCCC3)nc(N3CCN(c4ncccn4)CC3)n2)cc1` [Example 37], the Ki in assay [1] was greater than 5000 nM.
`Cc1ccc(Nc2cc(N3CCCCC3)nc(N3CCc4ccccc43)n2)cc1` [Example 39]: the Ki in assay [1] and in assay [2] was greater than 5000 nM in each case.
Take `Cc1ccc(Nc2cc(N3CCCCC3)nc(N3CCCc4ccccc43)n2)cc1` [Example 40]: the Ki in assay [1] was greater than 5000 nM.
On to `COc1cc2c(cc1OC)CN(c1nc(Nc3ccc(C)cc3)cc(N3CCCCC3)n1)CC2` [Example 42], for which the Ki in assay [1] is greater than 5000 nM.
Turning to `Cc1ccc(Nc2cc(N3CCCCC3)nc(N3Cc4cccc5cccc(c45)C3)n2)cc1` [Example 43], the Ki in assay [1] and in assay [2] was greater than 5000 nM each time.
Regarding `Cc1ccc(Nc2cc(N3CCCCC3)nc(N3CCC(O)(c4ccccc4)CC3)n2)cc1` [Example 44], the Ki in assay [1] is greater than 5000 nM.
Consider `COCCN(CCOC)c1nc(Nc2ccc(C)cc2)cc(N2CCCCC2)n1` [Example 45], for which the inhibitory constant (Ki) in assay [1] and in assay [2] was greater than 5000 nM each time.
Regarding `CN(C)c1cc(Nc2ccccc2)nc(Nc2ccccc2)n1` [Example 50], the Ki in assay [1] and in assay [2] was greater than 5000 nM in each case.
Take `Cc1cccc(Nc2cc(N(C)C)nc(Nc3ccccc3)n2)c1` [Example 52]: the Ki in assay [1] and in assay [2] was greater than 5000 nM each time.
Regarding `Cc1ccc(Nc2nc(Nc3cccc(C)c3)cc(N(C)C)n2)cc1` [Example 53], the Ki in assay [1] and in assay [2] was greater than 5000 nM throughout.
Regarding `Cc1ccc(Nc2cc(N(C)C)nc(Nc3ccccc3)n2)cc1` [Example 54], the inhibition constant Ki in assay [1] and in assay [2] was greater than 5000 nM each time.
On to `Cc1ccc(Nc2cc(N(C)C)nc(Nc3ccc(Cl)c(Cl)c3)n2)cc1` [Example 55], for which the Ki in assay [1] and in assay [2] was greater than 5000 nM each time.
As to `Cc1ccc(Nc2cc(N(C)C)nc(Nc3ccc(C)cc3)n2)cc1` [Example 56], the Ki in assay [1] and in assay [2] was greater than 5000 nM each time.
For `CN(C)c1cc(Nc2cccc(F)c2)nc(Nc2ccccc2)n1` [Example 57], the Ki in assay [1] and in assay [2] was greater than 5000 nM each time.
Take `CN(C)c1cc(Nc2ccc(Br)cc2)nc(Nc2ccccc2)n1` [Example 59]: the Ki in assay [1] and in assay [2] was greater than 5000 nM throughout.
For `CN(C)c1cc(Nc2ccc(C(C)(C)C)cc2)nc(Nc2ccccc2)n1` [Example 63], the Ki in assay [1] and in assay [2] was greater than 5000 nM throughout.
`CN(C)c1cc(Nc2ccc(Oc3ccccc3)cc2)nc(Nc2ccccc2)n1` [Example 64]: the Ki in assay [1] and in assay [2] was greater than 5000 nM each time.
As to `CN(C)c1cc(Nc2ccc3ccccc3c2)nc(Nc2ccccc2)n1` [Example 65], the Ki in assay [1] and in assay [2] was greater than 5000 nM throughout.
With `CN(C)c1cc(NC2CCCCC2)nc(Nc2ccccc2)n1` [Example 66], the Ki in assay [1] and in assay [2] was greater than 5000 nM each time.
On to `Cc1ccc(Nc2cc(N(C)C)nc(N(C)c3ccc(C)cc3)n2)cc1` [Example 72], for which the Ki in assay [1] was greater than 5000 nM.
Turning to `Cc1ccc(Nc2cc(N(C)C)nc(N(C)C3CCCCC3)n2)cc1` [Example 73], the inhibition constant (Ki) in assay [1] is greater than 5000 nM.
Take `Cc1ccc(Nc2cc(N(C)C)nc(N3CCC(O)(c4ccccc4)CC3)n2)cc1` [Example 80]: the Ki in assay [1] is greater than 5000 nM.
Same read-out and setting: with `Cc1ccc(Nc2cc(N(C)C)nc(N3CCC(c4ccccc4)CC3)n2)cc1` [Example 81] the figure was greater than 5000 nM.
For the compound `Cc1ccc(Nc2cc(N(C)C)nc(N3CCN(S(=O)(=O)c4ccc(C)cc4)CC3)n2)cc1` [Example 84], the Ki in assay [1] and in assay [2] was greater than 5000 nM in each case.
As for `Cc1ccc(Nc2cc(N(C)C)nc(N3CCN(c4ccccc4C)CC3)n2)cc1` [Example 85], the Ki in assay [1] is greater than 5000 nM.
Consider `Cc1ccc(Nc2cc(N(C)C)nc(N3CCN(c4cccc(C)c4)CC3)n2)cc1` [Example 86], for which the inhibition constant Ki in assay [1] and in assay [2] was greater than 5000 nM in each case.
Turning to `Cc1ccc(Nc2cc(N(C)C)nc(N3CCN(c4ccc(C)cc4)CC3)n2)cc1` [Example 87], in assay [1], the inhibition constant Ki is greater than 5000 nM.
